Measured values reported in patent publication US20260184712A1, “Heterocyclic Compounds as ENT Inhibitors and Compounds for Use in the Treatment of Cancers” (iTeos Belgium SA, priority 2022, published 2026).

How the values were obtained:
human ENT1 = target: T1, human ENT1 (Homo sapiens, UniProt Q99808); experiment: ENT1 binding assay (competition with Sahenta-DY647 on JAR cells); conditions: competition with SAHENTA-DY647 binding; IC50 categorized; read-out: Binding Assay IC50
T1 construct: JAR cells expressing ENT1 were purchased from ATCC; host or cells: JAR cells
T1 sequence (Q99808 1-456): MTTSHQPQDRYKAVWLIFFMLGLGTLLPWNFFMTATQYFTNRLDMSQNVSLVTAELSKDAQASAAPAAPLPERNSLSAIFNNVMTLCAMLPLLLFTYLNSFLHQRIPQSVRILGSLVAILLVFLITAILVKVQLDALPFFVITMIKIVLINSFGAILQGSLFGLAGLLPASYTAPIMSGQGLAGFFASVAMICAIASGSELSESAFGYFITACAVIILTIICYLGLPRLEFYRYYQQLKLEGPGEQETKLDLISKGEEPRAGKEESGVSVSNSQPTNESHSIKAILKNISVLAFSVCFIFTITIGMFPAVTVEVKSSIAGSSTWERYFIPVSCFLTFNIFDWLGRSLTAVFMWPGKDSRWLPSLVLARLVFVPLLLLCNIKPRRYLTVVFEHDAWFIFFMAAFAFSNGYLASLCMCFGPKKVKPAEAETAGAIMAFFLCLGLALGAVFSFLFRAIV
Method in brief: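 Whole-cell competition on JAR cells (native ENT1): 50,000 cells pre-incubated 30 min at 4 °C with compound in HBSS/10 mM Hepes/0.1% BSA, then 100 nM Sahenta-DY647 added for 30 min at 4 °C. After washing, fluorescence (Ex 630/Em 670 nm) read; IC50 from sigmoidal fit, averaged as pIC50.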

[1] = tested on: stimulated primary human T cells; experiment: T cell proliferation assay, Condition A (X-VIVO15); type: cell-based; conditions: Homo sapiens, T-cell, 96 h; Condition A: X-VIVO15 medium; anti-CD3/anti-CD28 beads, ATP, 4 days; CFSE-lo T cells
Description: (§1) The goal of this study was to determine the potency of ENT1 inhibitors by measuring the rescued proliferation of stimulated primary human T cells incubated in the presence of 100 uM Adenosine triphosphate (ATP), in baseline conditions (condition A) or in the presence of various proteins known to bind small molecules (condition B).
(§2) Venous blood from healthy volunteers, all of whom signed an informed consent approved by the Ethics Committee (FOR—UIC—BV-050-01-01 ICF_HBS_HD Version 5.0), was obtained by ImmuneHealth (Centre Hospitalier Universitaire Tivoli, La Louviere, Belgium). Mononuclear cells were collected by density gradient centrifugation, using SepMate-50 tubes (StemCell Technologies, Grenoble, France) and Lymphoprep (Stemcell Technologies) according to the manufacturer's instructions. CD3+ T cells were isolated by immunomagnetic negative selection, using the EasySep Human T Cell Isolation Kit (StemCell Technologies) as per the manufacturer's instructions. CD3+ T cells were stored in heat inactivated FBS (hiFBS; Gibco, ThermoFisher Scientific, Merelbeke, Belgium) and 10% DMSO in liquid nitrogen.
(§3) Purified human CD3+ T cells were thawed and washed once with RPMI1640 medium, UltraGlutamine (Lonza, Verviers, Belgium) containing 10% hiFBS. Cells were resuspended in PBS containing 10% hiFBS at 1×10^7 cells/ml. One volume of cells was combined with a matching volume of 2 μM CFSE solution in PBS, mixed well by pipetting, and incubated at room temperature for 5 minutes under rotation and protected from light. Excess CFSE was quenched by addition of PBS containing 10% hiFBS, and the cells were centrifuged (300×rcf, 7 minutes) and resuspended in X-VIVO15. Cells were again centrifuged and resuspended in X-VIVO15 for counting.
(§4) Cells were resuspended at 1.6×10^6 cells/mL in X-VIVO15 medium (Condition A) or X-VIVO15 medium containing 4% (v/v) HSA (Sigma-Aldrich, Diegem, Belgium) and 0.2% (v/v) ai-Acid Glycoprotein (Sigma-Aldrich, Diegem, Belgium) (Condition B).
(§5) […] of cell suspension (2×10^4 cells) was added to wells of sterile flat-bottom 384-well plates. Cells were activated by adding […] of anti-CD3 anti-CD28 coated microbeads (Dynabeads human T-activator CD3/CD28; Life Technologies, Paisley, UK) suspended in X-VIVO15 medium or X-VIVO15 medium containing 4% (v/v) HSA and 0.2% (v/v) ai-Acid Glycoprotein at a ratio of one microbead per two cells. Serial dilutions of the ENT1 inhibitors were conducted in X-VIVO15 medium and […] of the diluent was added to the wells. Cells were mixed by pipetting up and down and pre-incubated for 30 minutes in a 37° C. humidified tissue culture incubator with 5% CO2. After pre-incubation, cells were cultured in the presence or absence of ATP (Sigma-Aldrich) at a final concentration of […]. The final well volume was 50 μl in all cases. Experiments were performed in biological duplicates. Cells were mixed by pipetting up and down and incubated for 4 days in a 37° C. humidified tissue culture incubator with 5% CO2.
(§6) Samples were run on a BD LSR Fortessa FACS machine (BD FACSDiva Software v9.0.1). Data were analyzed using FlowJo (BD, v10.7.1). T cell proliferation was determined by measuring the frequency of ‘CFSE^lo’ (i.e. CFSE-diluted).
(§7) T cell proliferation data were analyzed using FlowJo software (Version 10.6.2). Dead cells and cellular debris were excluded on the basis of forward and side scatter profile and singlet cells were selected for further analysis.
(§8) T cell proliferation was determined based on the percent CFSE^lo total T cells for each condition. The data were plotted on the y-axis against log molar (M) concentration of ENT1 inhibitors on the x-axis in GraphPad Prism (version 9.0.0). IC50 and IC90 values were generated with the ‘log(agonist) vs. response—Find ECanything(F))’ function with F constrained to 50 or 90, respectively. pICF values were generated by taking the −logECF values.

[2] = tested on: stimulated primary human T cells; experiment: T cell proliferation assay, Condition B (X-VIVO15, 2% HSA and 0.1% AAG); type: cell-based; conditions: Homo sapiens, T-cell, 96 h; Condition B: X-VIVO15 medium containing HSA and α1-Acid Glycoprotein; anti-CD3/anti-CD28 beads, ATP, 4 days; CFSE-lo T cells
Description: as §1
Condition B: X-VIVO15, 2% Human Serum Albumin (HSA) and 0.1% α-1-Acid Glycoprotein (AAG)
as §2, §3, §4, §5, §6, §7, §8

| Structure (SMILES) | IC50 (human ENT1) [µM] | IC50 [1] [µM] | IC50 [2] [µM] |
| --- | --- | --- | --- |
| C[C@H]1O[C@@H](n2c(NC3CCOCC3)nc3c(OCc4ccc([N+](=O)[O-])cc4)ncnc32)[C@H](O)[C@@H]1O [Compound 30] | < 0.001 | < 0.001 | 0.001 to 0.02 |
| C[C@H]1O[C@@H](n2c(NCC3CCC(F)(F)C3)nc3c(OCc4ccc(OC(F)F)nc4)ncnc32)[C@H](O)[C@@H]1O (stereo partly shown) [Compound 115] | 0.001 to 0.02 |  | > 0.5 |
| C[C@H]1O[C@@H](n2c(NC3CC3)nc3c(OCc4ccc([N+](=O)[O-])cc4)ncnc32)[C@H](O)[C@@H]1O [Compound 26] | 0.001 to 0.02 | 0.001 to 0.02 | 0.02 to 0.5 |
| C[C@H]1O[C@@H](n2c(NCC3CC(F)(F)C3)nc3c(OCc4ccc(OC(F)F)nc4)ncnc32)[C@H](O)[C@@H]1O [Compound 114] | 0.001 to 0.02 | < 0.001 | 0.02 to 0.5 |
| CCNc1nc2c(N3CCc4ccc([N+](=O)[O-])cc4C3)ncnc2n1[C@@H]1O[C@H](C)[C@@H](O)[C@H]1O [Compound 150] | 0.001 to 0.02 | 0.001 to 0.02 | 0.02 to 0.5 |
| COCCNc1nc2c(OCc3ccc([N+](=O)[O-])cc3)ncnc2n1[C@@H]1O[C@H](C)[C@@H](O)[C@H]1O [Compound 23] | 0.001 to 0.02 | < 0.001 | 0.02 to 0.5 |
| C[C@H]1O[C@@H](n2c(NC3CCOC3)nc3c(OCc4ccc([N+](=O)[O-])cc4)ncnc32)[C@H](O)[C@@H]1O (stereo partly shown) [Compound 18] | 0.001 to 0.02 | < 0.001 | 0.001 to 0.02 |
| C[C@H]1O[C@@H](n2c(NC3CCCC3)nc3c(OCc4ccc(OC(F)F)cc4)ncnc32)[C@H](O)[C@@H]1O [Compound 11] | < 0.001 | < 0.001 | 0.001 to 0.02 |
| C[C@H]1O[C@@H](n2c(NC3CCCC3)nc3c(OCc4ccc(C#N)cc4)ncnc32)[C@H](O)[C@@H]1O [Compound 12] | < 0.001 | < 0.001 | 0.02 to 0.5 |
| C[C@H]1O[C@@H](n2cnc3c(OCc4ccc(C(F)F)cc4)ncnc32)[C@H](O)[C@@H]1O [Compound 182] | 0.02 to 0.5 | 0.001 to 0.02 | > 0.5 |
| C[C@H]1O[C@@H](n2cnc3c(OCc4cc(F)c(F)c(F)c4)ncnc32)[C@H](O)[C@@H]1O [Compound 200] | 0.02 to 0.5 | 0.001 to 0.02 | > 0.5 |
| C[C@H]1O[C@@H](n2c(NC3CCS(=O)(=O)CC3)nc3c(OCc4ccc([N+](=O)[O-])cc4)ncnc32)[C@H](O)[C@@H]1O [Compound 31] | < 0.001 | < 0.001 | 0.001 to 0.02 |
| C[C@H]1O[C@@H](n2c(Nc3cnn(C)c3)nc3c(OCc4ccc([N+](=O)[O-])cc4)ncnc32)[C@H](O)[C@@H]1O [Compound 17] | 0.001 to 0.02 | 0.001 to 0.02 | 0.02 to 0.5 |
| C[C@H]1O[C@@H](n2cnc3c(N(C)Cc4ccc([N+](=O)[O-])cc4)ncnc32)[C@H](O)[C@@H]1O [Compound 177] | 0.02 to 0.5 | 0.02 to 0.5 | > 0.5 |
| C[C@H]1O[C@@H](n2cnc3c(OCc4ccc(Cl)cc4)ncnc32)[C@H](O)[C@@H]1O [Compound 187] | 0.02 to 0.5 | 0.001 to 0.02 | > 0.5 |
| CC(=O)N1CCC(Nc2nc3c(OCc4ccc(C#N)cc4)ncnc3n2[C@@H]2O[C@H](C)[C@@H](O)[C@H]2O)CC1 [Compound 80] | < 0.001 |  | 0.001 to 0.02 |
| C[C@H]1O[C@@H](n2c(NCc3cnn(C)c3)nc3c(OCc4ccc(OC(F)F)cc4)ncnc32)[C@H](O)[C@@H]1O [Compound 66] | 0.001 to 0.02 |  | 0.02 to 0.5 |
| C[C@H]1O[C@@H](n2c(NC3CCCC3)nc3c(OCc4ccc(C#N)nc4)ncnc32)[C@H](O)[C@@H]1O [Compound 74] | 0.001 to 0.02 |  | 0.02 to 0.5 |
| C[C@H]1O[C@@H](n2c(NCCCO)nc3c(OCc4ccc(OC(F)F)cc4)ncnc32)[C@H](O)[C@@H]1O [Compound 44] | 0.001 to 0.02 | 0.001 to 0.02 | 0.02 to 0.5 |
| C[C@H]1O[C@@H](n2c(NCC3CCOC3)nc3c(OCc4ccc(C#N)cc4)ncnc32)[C@H](O)[C@@H]1O (stereo partly shown) [Compound 108] | 0.001 to 0.02 | 0.001 to 0.02 | 0.02 to 0.5 |
| C[C@H]1O[C@@H](n2c(NC3CCCC3)nc3c(OCc4ccc(OC(F)(F)F)nc4)ncnc32)[C@H](O)[C@@H]1O [Compound 87] | 0.001 to 0.02 |  | 0.02 to 0.5 |
| C[C@H]1O[C@@H](n2c(Nc3cnn(C)c3)nc3c(OCc4ccc(OC(F)F)cc4)ncnc32)[C@H](O)[C@@H]1O [Compound 64] | 0.001 to 0.02 |  | 0.02 to 0.5 |
| C[C@H]1O[C@@H](n2c(NC3CCC(O)C3)nc3c(OCc4ccc(C(F)(F)F)cc4)ncnc32)[C@H](O)[C@@H]1O (stereo partly shown) [Compound 100] | 0.001 to 0.02 |  | 0.02 to 0.5 |
| Cc1cc(COc2ncnc3c2nc(NC2CCOCC2)n3[C@@H]2O[C@H](C)[C@@H](O)[C@H]2O)ccc1[N+](=O)[O-] [Compound 103] | < 0.001 |  | 0.02 to 0.5 |
| C[C@H]1O[C@@H](n2c(NCc3ccc(C#N)nc3)nc3c(OCc4ccc(C#N)cc4)ncnc32)[C@H](O)[C@@H]1O [Compound 70] | 0.001 to 0.02 |  | 0.02 to 0.5 |
| Cc1nc(CNc2nc3c(OCc4ccc(C#N)cc4)ncnc3n2[C@@H]2O[C@H](C)[C@@H](O)[C@H]2O)no1 [Compound 68] | 0.001 to 0.02 |  | 0.02 to 0.5 |
| COCCCNc1nc2c(OCc3ccc(OC(F)F)cc3)ncnc2n1[C@@H]1O[C@H](C)[C@@H](O)[C@H]1O [Compound 46] | 0.001 to 0.02 |  | 0.02 to 0.5 |
| C[C@H]1O[C@@H](n2c(N[C@H]3CCOC3)nc3c(OCc4ccc(C#N)cc4)ncnc32)[C@H](O)[C@@H]1O [Compound 78] | 0.001 to 0.02 |  | 0.02 to 0.5 |
| C[C@H]1O[C@@H](n2c(NCC3CCC(F)(F)CC3)nc3c(OCc4ccc(OC(F)F)nc4)ncnc32)[C@H](O)[C@@H]1O [Compound 116] | 0.001 to 0.02 |  | 0.02 to 0.5 |
| C[C@H]1O[C@@H](n2c(NC3CCOCC3)nc3c(OCc4ccc(C#N)nc4)ncnc32)[C@H](O)[C@@H]1O [Compound 76] | 0.001 to 0.02 |  | 0.02 to 0.5 |
